Measurements published in ChEMBL document CHEMBL1201862, “PubChem BioAssay data set” (2004).
Values belong to the compound of their own block, whether it stands above or below them. The source made the active and inactive calls.

What was measured:
[1] = HIV-1 Vif–A3G interaction blockers – biochemical, TR-FRET, GST-Vif 1-94, biotin-A3G peptide, dose response retest, primary screen (AID 1117319); format: functional;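 further: TR-FRET signal of purified GST-Vif binding a biotinylated A3G peptide; inhibitors lower the FRET signal by blocking Vif and A3G binding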
[2] = target: T1, Apoptotic protease-activating factor 1 (Homo sapiens, UniProt O14727); format: functional
T1 sequence (O14727 whole entry): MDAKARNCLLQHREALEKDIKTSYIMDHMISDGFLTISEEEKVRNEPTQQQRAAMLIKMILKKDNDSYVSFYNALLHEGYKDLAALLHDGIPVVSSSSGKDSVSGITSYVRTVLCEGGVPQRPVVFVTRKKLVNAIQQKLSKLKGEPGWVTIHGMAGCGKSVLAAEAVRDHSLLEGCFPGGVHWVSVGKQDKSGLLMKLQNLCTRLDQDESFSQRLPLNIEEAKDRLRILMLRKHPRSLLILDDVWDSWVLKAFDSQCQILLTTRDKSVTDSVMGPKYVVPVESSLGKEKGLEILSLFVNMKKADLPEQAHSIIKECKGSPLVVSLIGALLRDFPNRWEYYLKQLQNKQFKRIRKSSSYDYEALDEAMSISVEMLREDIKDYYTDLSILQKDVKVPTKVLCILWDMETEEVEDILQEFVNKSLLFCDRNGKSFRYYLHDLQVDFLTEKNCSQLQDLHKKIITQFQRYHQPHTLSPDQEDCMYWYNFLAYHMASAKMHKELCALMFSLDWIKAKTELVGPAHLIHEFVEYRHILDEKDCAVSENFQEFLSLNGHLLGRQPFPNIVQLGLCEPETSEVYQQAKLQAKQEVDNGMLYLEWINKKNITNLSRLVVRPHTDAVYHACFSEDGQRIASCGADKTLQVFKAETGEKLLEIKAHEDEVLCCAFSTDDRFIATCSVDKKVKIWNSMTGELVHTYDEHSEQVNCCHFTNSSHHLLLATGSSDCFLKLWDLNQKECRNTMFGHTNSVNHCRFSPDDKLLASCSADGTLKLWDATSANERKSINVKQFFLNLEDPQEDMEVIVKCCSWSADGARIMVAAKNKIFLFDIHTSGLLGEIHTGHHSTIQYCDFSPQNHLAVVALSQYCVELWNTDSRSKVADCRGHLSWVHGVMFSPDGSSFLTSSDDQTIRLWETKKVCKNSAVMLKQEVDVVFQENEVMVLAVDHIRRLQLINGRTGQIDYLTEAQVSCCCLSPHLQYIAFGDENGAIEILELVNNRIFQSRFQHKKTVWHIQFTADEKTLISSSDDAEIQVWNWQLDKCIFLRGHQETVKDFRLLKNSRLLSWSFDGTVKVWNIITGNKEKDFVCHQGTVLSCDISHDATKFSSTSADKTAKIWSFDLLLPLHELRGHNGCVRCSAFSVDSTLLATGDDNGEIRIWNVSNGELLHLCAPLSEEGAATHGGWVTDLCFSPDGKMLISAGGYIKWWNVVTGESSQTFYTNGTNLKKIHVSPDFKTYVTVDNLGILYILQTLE

Genome polyprotein = Genome polyprotein (dengue virus type 2, UniProt P29990); experiment: flavivirus cap methylation enzyme inhibition – biochemical, confirmation dose response, primary screen (AID 588689); format: functional
Sequence of Genome polyprotein (P29990 2492-3391 limits assumed): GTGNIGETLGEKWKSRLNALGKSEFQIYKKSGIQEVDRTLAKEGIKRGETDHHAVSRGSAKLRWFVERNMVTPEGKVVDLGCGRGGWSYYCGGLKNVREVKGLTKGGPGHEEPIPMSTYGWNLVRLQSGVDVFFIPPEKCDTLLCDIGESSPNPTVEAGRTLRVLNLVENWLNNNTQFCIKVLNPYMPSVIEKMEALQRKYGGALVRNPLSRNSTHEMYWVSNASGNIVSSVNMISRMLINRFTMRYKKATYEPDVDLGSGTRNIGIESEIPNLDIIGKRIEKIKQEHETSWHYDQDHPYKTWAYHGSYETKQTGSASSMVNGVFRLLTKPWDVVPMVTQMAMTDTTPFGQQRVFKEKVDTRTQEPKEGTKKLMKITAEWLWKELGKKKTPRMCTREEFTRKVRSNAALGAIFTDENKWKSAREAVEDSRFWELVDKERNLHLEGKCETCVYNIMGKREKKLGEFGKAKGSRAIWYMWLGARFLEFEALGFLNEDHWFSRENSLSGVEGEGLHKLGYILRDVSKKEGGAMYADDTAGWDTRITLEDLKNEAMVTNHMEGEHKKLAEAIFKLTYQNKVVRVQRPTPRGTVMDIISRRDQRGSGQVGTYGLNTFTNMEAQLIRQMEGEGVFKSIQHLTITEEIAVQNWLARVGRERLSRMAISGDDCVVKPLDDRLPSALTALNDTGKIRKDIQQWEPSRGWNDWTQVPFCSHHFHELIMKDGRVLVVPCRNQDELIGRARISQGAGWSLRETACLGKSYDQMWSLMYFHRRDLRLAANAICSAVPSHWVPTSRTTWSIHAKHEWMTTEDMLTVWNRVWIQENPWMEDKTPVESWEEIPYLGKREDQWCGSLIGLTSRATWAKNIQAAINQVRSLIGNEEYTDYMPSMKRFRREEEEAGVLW

Protein Tat = target: T2, Protein Tat (Human immunodeficiency virus type 1 group M subtype B (isolate HXB2)(HIV-1), UniProt P04608); format: functional;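 further: tat binding to TAR RNA read out by fluorescence polarization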
T2 sequence (P04608 whole entry): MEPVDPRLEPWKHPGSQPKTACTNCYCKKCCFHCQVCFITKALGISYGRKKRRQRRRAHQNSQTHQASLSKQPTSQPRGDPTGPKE

[3] = viability loss in THP-1 monocytes – THP-1 cells, cytotoxicity control for Vif-APOBEC3G degradation inhibitor project, dose response (AID 1117359); format: functional; details: THP-1
[4] = target: E3 ubiquitin-protein ligase Mdm2 (Homo sapiens, UniProt Q00987); experiment: MDM2-luc reporter signal enhancers, multi-concentration potency testing, MDM2 ubiquitin-protein ligase inhibitor program, whole-cell format, luminescence detection, 384-well microplate (AID 1394); format: functional;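 further: MDM2 E3 inhibitors raise luminescence so EC50 is for signal enhancement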
Sequence of E3 ubiquitin-protein ligase Mdm2 (Q00987 whole entry): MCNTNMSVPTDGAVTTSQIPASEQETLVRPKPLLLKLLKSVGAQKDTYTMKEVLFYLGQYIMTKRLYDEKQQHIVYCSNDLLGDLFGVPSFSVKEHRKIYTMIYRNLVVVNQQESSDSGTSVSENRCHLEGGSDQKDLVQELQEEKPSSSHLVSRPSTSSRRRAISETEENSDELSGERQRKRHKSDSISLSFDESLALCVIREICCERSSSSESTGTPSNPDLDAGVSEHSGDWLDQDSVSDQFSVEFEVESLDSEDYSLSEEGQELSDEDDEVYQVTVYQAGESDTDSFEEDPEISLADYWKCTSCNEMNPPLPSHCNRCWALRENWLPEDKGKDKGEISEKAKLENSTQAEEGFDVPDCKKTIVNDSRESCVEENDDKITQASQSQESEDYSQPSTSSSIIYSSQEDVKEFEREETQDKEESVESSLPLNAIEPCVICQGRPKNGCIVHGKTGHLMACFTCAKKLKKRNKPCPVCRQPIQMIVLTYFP

[5] = viability inhibitors of stage V gametocytes – luminescence, dose response (AID 1117278); format: functional, cell-based;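 further: gametocytes exposed to compound for 24 hours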
[6] = viability loss in human Jurkat cells – cell-based, luminescence, cytotoxicity control for P. falciparum gametocyte viability project, dose response (AID 1117277); format: functional;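 further: potency reflects loss of cellular ATP meaning fewer viable cells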
[7] = reduced cellular PGC1a acetyl-lysine signal – cell-based, cherry-picked samples, dose response (AID 720514); format: functional;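 further: potency may reflect raised or lowered acetylation signal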
[8] = A549 cell cytotoxicity, dose response, cytotoxicity control, plate reader, cherry-pick, antagonist series (AID 743412); format: functional, cell-based
[9] = toxicity toward HepG2 liver cells – cell-based, plate reader, cherry-pick, antagonist series, cytotoxicity control, dose response (AID 743416); format: functional
[10] = blockers of bursicon-stimulated LGR2 cAMP reporter – cell-based, HEK293, CRE-luciferase reporter, cherry pick, set 2, dose response (AID 743343); format: functional;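 further: transfected cells were stimulated with diluted bursicon conditioned medium after compound addition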
[11] = blockade of melanocortin 4 receptor signaling – cell-based, plate reader, cherry pick, counter-screen for LGR2 antagonist project, dose response (AID 743444); format: functional;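 further: transfected HEK 293 cells stimulated with alpha-MSH peptide; potency of inhibitors of the alpha-MSH evoked signal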
[12] = viability loss in HEK293 cells – cell-based, plate reader, cherry-picked samples, cytotoxicity control, dose response (AID 743446); format: functional
Kallikrein-7 = Kallikrein-7 (Homo sapiens, UniProt P49862); experiment: Fluorescence Intensity-based biochemical primary high throughput dose response assay to identify activators of kallikrein-7 (K7) zymogen.
Sequence of Kallikrein-7 (P49862 whole entry): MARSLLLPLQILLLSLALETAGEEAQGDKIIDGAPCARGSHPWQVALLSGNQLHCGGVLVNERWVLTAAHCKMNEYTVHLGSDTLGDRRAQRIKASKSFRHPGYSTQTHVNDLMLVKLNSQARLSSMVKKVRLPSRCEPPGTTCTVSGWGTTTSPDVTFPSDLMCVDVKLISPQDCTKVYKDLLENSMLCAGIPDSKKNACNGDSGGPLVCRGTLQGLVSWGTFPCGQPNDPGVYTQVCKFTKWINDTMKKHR

[13] = NIH-3T3 fibroblast cytotoxicity, dose response, cytotoxicity control, cell-based, fluorescence, Alamar Blue, secondary assay (AID 2327); format: functional;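 further: NIH-3T3 mouse fibroblasts cultured with fluconazole at 8 µg/mL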
[14] = fluconazole-exposed Candida albicans growth modulators – fluorescence, retest, confirmation (AID 2467); format: functional, cell-based
[15] = viability of PTEN-deleted HCT116 cells – cell-based, HCT116 PTEN knockout, dose response (AID 1047); format: functional;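 further: HCT116 colon tumor cells with PTEN knocked out; cells exposed to compound for 60 hours before readout; potency for loss of cell viability measured by luminescence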
[16] = viability of HCT116 lacking mutant beta-catenin – cell-based, human colon tumor, dose response (AID 1045); format: functional;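 further: HCT116 colon tumor cells with beta catenin knocked out; cells exposed to compound for 60 hours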
Caspase-6 = target: T3, Caspase-6 (Homo sapiens, UniProt P55212); experiment: inhibition of CASP6 peptide cleavage – biochemical, VEID-R110 fluorescence, cherry-pick, dose response (AID 720632)
T3 sequence (P55212 whole entry): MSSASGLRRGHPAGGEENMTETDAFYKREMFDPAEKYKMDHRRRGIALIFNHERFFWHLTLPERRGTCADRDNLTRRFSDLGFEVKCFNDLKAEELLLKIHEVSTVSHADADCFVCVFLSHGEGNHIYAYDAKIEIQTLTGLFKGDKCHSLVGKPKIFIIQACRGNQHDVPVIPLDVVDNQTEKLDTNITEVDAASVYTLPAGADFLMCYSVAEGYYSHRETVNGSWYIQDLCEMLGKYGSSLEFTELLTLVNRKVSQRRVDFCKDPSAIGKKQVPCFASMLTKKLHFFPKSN

[17] = viability loss in Vero cells – cytotoxicity control for Vif-APOBEC3G degradation inhibitor project, dose response (AID 1117358); format: functional; details: Vero
[18] = P. falciparum Dd2 growth inhibitors, dose response, SYBR Green, cherry-picked samples (AID 1159567); format: functional, cell-based
[19] = toxicity to human hepatoma HepG2 cells – cell-based, cherry-picked samples, cytotoxicity control, dose response (AID 1159577); format: functional
[20] = potency of ADAM10 substrate cleavage blockers – biochemical, QFRET, dose response (AID 743254);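 further: ADAM10 enzyme with the DM2 quenched FRET peptide as substrate; EDANS fluorescence gain as the protease cuts the substrate; inhibitor potency against ADAM10 proteolytic activity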
[21] = target: Disintegrin and metalloproteinase domain-containing protein 17 (Homo sapiens, UniProt P78536); experiment: inhibition of ADAM17 substrate cleavage – biochemical, quenched FRET substrate, counter-screen for ADAM10 exosite inhibitor project, dose response (AID 743253)
Sequence of Disintegrin and metalloproteinase domain-containing protein 17 (P78536 whole entry, the tested form may be a part): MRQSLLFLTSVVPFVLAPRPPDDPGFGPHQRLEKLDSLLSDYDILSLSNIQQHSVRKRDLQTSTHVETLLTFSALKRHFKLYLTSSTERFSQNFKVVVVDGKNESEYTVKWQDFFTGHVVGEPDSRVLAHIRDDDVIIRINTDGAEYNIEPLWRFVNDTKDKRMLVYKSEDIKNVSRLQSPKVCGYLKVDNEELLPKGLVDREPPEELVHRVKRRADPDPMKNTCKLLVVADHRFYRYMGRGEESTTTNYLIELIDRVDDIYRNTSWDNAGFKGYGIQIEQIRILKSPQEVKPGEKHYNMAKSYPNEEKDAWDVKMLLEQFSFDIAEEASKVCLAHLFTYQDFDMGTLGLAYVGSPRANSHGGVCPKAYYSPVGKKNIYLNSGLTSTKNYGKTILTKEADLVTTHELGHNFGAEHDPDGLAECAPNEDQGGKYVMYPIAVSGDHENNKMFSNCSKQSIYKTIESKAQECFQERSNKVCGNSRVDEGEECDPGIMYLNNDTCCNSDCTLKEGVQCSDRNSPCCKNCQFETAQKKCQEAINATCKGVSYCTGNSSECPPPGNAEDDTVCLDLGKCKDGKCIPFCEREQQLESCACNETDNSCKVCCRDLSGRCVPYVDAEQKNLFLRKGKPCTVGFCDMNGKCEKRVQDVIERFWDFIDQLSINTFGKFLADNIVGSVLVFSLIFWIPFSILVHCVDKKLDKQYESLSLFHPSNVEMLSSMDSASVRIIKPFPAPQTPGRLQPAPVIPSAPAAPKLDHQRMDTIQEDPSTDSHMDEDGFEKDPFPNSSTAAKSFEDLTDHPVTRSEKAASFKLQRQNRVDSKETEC

[22] = MITF Orthogonal Assay: SK-MEL-5 CTG Assay Measured in Cell-Based System Using Plate Reader - 2084-02_Inhibitor_Dose_DryPowder_Activity_Set7.; format: functional
[23] = MITF: Counter assay: A375 proliferation Measured in Cell-Based System Using Plate Reader - 2084-03_Inhibitor_Dose_DryPowder_Activity_Set8.; format: functional; details: A-375
[24] = inhibitors of TRPM1-promoter reporter in SK-MEL-5 – cell-based, luciferase, dry powder, set 8, MITF inhibitor project, dose response (AID 624430); format: functional
[25] = IC50 of insulin release inhibition, rat insulinoma INS-1E line, 5 mM glucose, cell-based (AID 1117331); format: functional
[26] = CellTiter-Glo luminescence survival assay, SW480 colon tumor line, concentration-response curve, half-maximal inhibitory concentration (AID 1117338); format: functional
[27] = RKO cell viability reduction, dose response, CellTiter-Glo luminescence (AID 1117322); format: functional
[28] = cytotoxicity toward HCT116 cells – cell-based, CellTiter-Glo luminescence, IC50, dose response (AID 1117332); format: functional; details: HCT-116
[29] = SNU-C1 cell viability reduction, dose response, CellTiter-Glo luminescence (AID 1117323); format: functional, cell-based
[30] = cytotoxicity toward Colo320 cells – cell-based, CellTiter-Glo luminescence, IC50, dose response (AID 1117334); format: functional; details: COLO 320
[31] = cytotoxicity toward HT-29 cells – cell-based, CellTiter-Glo luminescence, IC50, dose response (AID 1117330); format: functional
[32] = Reduced DLD-1 viability, concentration-response, CellTiter-Glo luminescence (AID 1117352); format: functional

IC50 [1]: > 100 µM (active)
Compound: CC1=C(C(=O)NCc2ccco2)C2(CCC(C)CC2)OC1=O (centres undefined)

IC50 [2]: 27.5 µM (active) | IC50 (Genome polyprotein): > 100 µM (active) | IC50 (Protein Tat): 25.4 µM (inconclusive) | IC50 [1]: > 50.6 µM (active)
Compound: CCc1ccc(CNc2ccc(O)cc2)cc1
CC50 [3]: 26.4 µM (active)

EC50 [4]: 8.93 µM (not active)
Compound: Cc1ccccc1Nc1nnc(SCC2CCCCO2)s1 (centres undefined)

Compound: CCOC(=O)C(C#N)C(c1cccnc1)c1c(C)n[nH]c1O (centres undefined)
IC50 [5]: > 109 µM (inactive) | IC50 [6]: > 83.3 µM (inactive)

Compound: O=C(/C=C/c1cccs1)c1ccc(NC(=O)c2cccc(Br)c2)cc1
AC50 [7]: 28.9 µM (active)

Compound: Cc1csc(CNc2ncnc3ccc(-c4ccoc4)cc23)c1
AC50 [8]: > 52 µM (inactive) | AC50 [9]: 27.8 µM (active) | AC50 [10]: 0.81 µM (active) | AC50 [11]: 0.489 µM (active) | AC50 [12]: 28.9 µM (active)

EC50 (Kallikrein-7): 86.4 µM (inactive)
Compound: COc1ccc(-c2cc(C(=O)NC3CC3)c3ccccc3n2)cc1

Compound: C=CCO/C(O)=C1\C(C)=NC(SCC(=O)NC(=O)OCC)=C(C#N)C1c1cccnc1 (centres undefined)
EC50 [13]: > 150 µM (inactive) | EC50 [14]: 6.32 µM (active) | EC50 (Kallikrein-7): 4.56 µM (active)

Compound: CCOC(=O)c1c(C)oc2c1c(/C=N/Cc1ccccn1)c(O)c1ccccc12
EC50 [15]: 25 µM (active) | EC50 [16]: 26.4 µM (active) | AC50 (Caspase-6): 11 µM (active) | CC50 [17]: 34.4 µM (active)

Compound: CCCc1c(-c2ccccc2F)ncn1CCc1ccccc1OC
AC50 [8]: 23.5 µM (active) | AC50 [9]: 23.6 µM (active) | AC50 [10]: 13.4 µM (active) | AC50 [11]: 17.4 µM (active) | AC50 [12]: 31.7 µM (active)

Compound: Fc1ccc(-c2ccc([C@@H]3[C@@H]4CN(Cc5ccccc5)C[C@H]3N4)cc2)cc1
AC50 [7]: 14.3 µM (active) | AC50 [18]: 4.07 µM (active) | AC50 [19]: 8.83 µM (active)

IC50 [20]: > 69.5 µM (inactive) | IC50 [21]: > 69.5 µM (inactive)
Compound: COc1cc(NC(=O)c2ccccc2)c(C)cc1NC(=O)CSc1nnc(-c2ccccc2F)n1-c1ccc(C)cc1

Compound: CN1CCN(C2=C(Nc3ccc(F)cc3)C(=O)c3ccccc3C2=O)CC1
AC50 [22]: 12.1 µM (active) | AC50 [23]: > 70 µM (inactive) | AC50 [24]: 8.28 µM (active)

Compound: CN(C)CC/C=C1\c2ccccc2Sc2ccc(Cl)cc21
IC50 [25]: > 33.3 µM (inactive)

Compound: CC(C)(C)CC(C)(C)c1cc(Cc2cc(C(C)(C)CC(C)(C)C)cc(-n3nc4ccccc4n3)c2O)c(O)c(-n2nc3ccccc3n2)c1 [BISOCTRIZOLE]
IC50 [26]: > 20 µM (inactive) | IC50 [27]: > 20 µM (inactive) | IC50 [28]: > 20 µM (inactive) | IC50 [29]: > 20 µM (inactive) | IC50 [30]: > 20 µM (inactive) | IC50 [31]: > 20 µM (inactive) | IC50 [32]: > 20 µM (inactive)
